Laboratory results: patent US20250360125A1, “METHODS AND COMPOSITIONS FOR TREATING HUNTINGTON'S DISEASE AND ITS SYMPTOMS” (Corcept Therapeutics Incorporated, priority 2023, published 2025)

What was measured:
[1] = tested on: Iba1; assay: Iba1 immunohistochemistry (microglia marker) in hippocampus of R6/2 mice; type: in vivo, mouse; details: experiment 1, male HD R6/2 mice, 30 mg/kg s.c. daily for 5 weeks
Method: (§1) Animal studies: experimental procedures From 6 weeks of age onwards, mice received a daily subcutaneous (s.c.) injection either with 30 mg/kg of CORT113176 or vehicle (Veh; 10% ethanol and castor oil in experiment 1 or sesame oil in experiment 2) for five consecutive weeks. In experiment 1, male and female mice were assigned into one of the following groups: 1) WT+Veh (n=5 per sex), 2) WT+CORT113176 (n=5), 3) HD+Veh (n=5) or 4) HD+CORT113176 (n=5). In the final analysis there was an unequal group distribution for the male mice due to a mislabeled genotype and a mouse reaching an earlier endpoint resulting in n=6 in the WT+Veh group and n=3 in the HD+Veh group. […] Bodyweight was measured weekly and motor tests were performed at 1 PM to monitor the disease progression (as described below). […] The slides of DARP32, GFAP and Iba1 were scanned with the Axio Slide Scanner (Zeiss, Axio Slide Scan.Z1) and the mHtt slides were analyzed using the confocal microscope (Leica, White Light Laser Confocal Microscope TCS SP8 X). All obtained images were analyzed using ImageJ (version 1.52p). DARP32, GFAP and Iba1 the mean intensity was measured in the striatum and hippocampus. The total number of aggregates in a specific region of interest (ROI), the total area in the ROI and the average size of the aggregates were measured.

[2] = tested on: R6/2 mouse model; assay: Gait abnormalities in R6/2 mice; type: in vivo; details: male R6/2 mice
[3] = tested on: R6/2 mouse model; assay: Forelimb grip strength in R6/2 mice; type: in vivo; details: 30 mg/kg s.c. daily for 5 weeks
Method: (§2) HD and wild-type (WT) R6/2 mice were purchased from JAX (The Jackson Laboratory, ME, USA) and arrived in the animal facility at 4-weeks of age. The mice were housed under normal conditions (room temperature, 12 hours light/dark cycle) with food and water ab libitum. The mice were housed 3-4 per cage, separated by sex, but different genotypes were housed together to improve the survival of the HD mice^11. Genotyping on tail samples that were collected post-mortem was performed by Laragen (CA, USA) to confirm that all HD mice had between 120-130 CAG repeats.
Animal studies: experimental procedures From 6 weeks of age onwards, mice received a daily subcutaneous (s.c.) injection either with 30 mg/kg of CORT113176 or vehicle (Veh; 10% ethanol and castor oil in experiment 1 or sesame oil in experiment 2) for five consecutive weeks. In experiment 1, male and female mice were assigned into one of the following groups: 1) WT+Veh (n=5 per sex), 2) WT+CORT113176 (n=5), 3) HD+Veh (n=5) or 4) HD+CORT113176 (n=5). […] Bodyweight was measured weekly and motor tests were performed at 1 PM to monitor the disease progression (as described below). […]
Grip strength: Grip strength measurements were performed weekly to quantify muscle strength. […] The mouse was then gently pulled away until grip was lost, and the force that was required to do this was monitored. […]

[4] = tested on: other steroid receptors; details: no test described; cited from earlier work
[5] = tested on: GFAP; assay: GFAP immunohistochemistry (astrocyte marker) in striatum and hippocampus of R6/2 mice; type: in vivo, mouse; details: experiment 1, male HD R6/2 mice, 30 mg/kg s.c. daily for 5 weeks
Method: as §1

[6] = tested on: mHtt aggregates; assay: mHtt aggregate immunohistochemistry in striatum and hippocampal CA1 of R6/2 mice; type: in vivo, mouse; details: experiment 2, male HD R6/2 mice, vs vehicle-treated HD mice
Method: Animal studies: experimental procedures From 6 weeks of age onwards, mice received a daily subcutaneous (s.c.) injection either with 30 mg/kg of CORT113176 or vehicle (Veh; 10% ethanol and castor oil in experiment 1 or sesame oil in experiment 2) for five consecutive weeks. In experiment 1, male and female mice were assigned into one of the following groups: 1) WT+Veh (n=5 per sex), 2) WT+CORT113176 (n=5), 3) HD+Veh (n=5) or 4) HD+CORT113176 (n=5). In the final analysis there was an unequal group distribution for the male mice due to a mislabeled genotype and a mouse reaching an earlier endpoint resulting in n=6 in the WT+Veh group and n=3 in the HD+Veh group. In experiment 2, male mice were assigned into the following groups: 1) WT+Veh (n=10), 2) HD+Veh (n=10, ultimately n=8 due to a non-responder that met outlier criteria and a mouse reaching an earlier timepoint) and 3) HD+CORT113176 (n=10). Bodyweight was measured weekly and motor tests were performed at 1 PM to monitor the disease progression (as described below). On day 19 and day 34, blood samples were taken in the morning to evaluate corticosterone levels. On day 34, the animals were sacrificed using CO2 inhalation, blood was collected via cardiac puncture and the animals were perfused with cold PBS. Afterwards, several tissues were harvested and snap-frozen for further analysis. Brains were collected and stored for 24 hours at 4% PFA for IHC (further described below). Immunohistochemistry Brains were isolated and the left hemisphere was fixated in 4% PFA (Sigma-Aldrich, 8187085000) for 24 hours. Afterwards the brains were transferred to a 30% sucrose solution for 24-48 hours and stored at −80° C. until further processing. Cryosections of 10 μM were collected (CryoStar NX70) on slides (Avantor, VWR® Microscope Slides, 631-1166) and stored at −20° C. until staining. The slides were incubated for 25 minutes with 0.1% Triton X-100 (Sigma-Aldrich), washed with 0.1% PBS/Tween (Tween®20, Sigma-Aldrich). The background signal was blocked with 5% PBSA for 30 minutes before the incubation with the primary antibody DARP32, (1:500, abcam, EP720Y, ab40801), GFAP (1:500, Agilent DAKO, Z0334), Iba1, (1:500, Fujifilm Wako, 019-19741) or mHtt, 1:500 (1:500, abcam, EPR5526, ab209668) overnight at 4° C. The following day slides were washed with 0.1% PBS/Tween before incubation with the secondary antibody goat anti-rabbit Alexa Fluor 488 (1:250, Invitrogen, A-110088) for 30 minutes. After a final wash with 0.1% PBS/Tween, ProLong gold with DAPI (Invitrogen, P36931) was added with a coverslip (Thermo-Fisher, Menzel-Glaser, 0980) and the slides were dried at room temperature. The slides of DARP32, GFAP and Iba1 were scanned with the Axio Slide Scanner (Zeiss, Axio Slide Scan.Z1) and the mHtt slides were analyzed using the confocal microscope (Leica, White Light Laser Confocal Microscope TCS SP8 X). All obtained images were analyzed using ImageJ (version 1.52p). DARP32, GFAP and Iba1 the mean intensity was measured in the striatum and hippocampus. The total number of aggregates in a specific region of interest (ROI), the total area in the ROI and the average size of the aggregates were measured.

[7] = tested on: R6/2 mouse model; assay: Hindlimb clasping test in R6/2 mice; type: in vivo; details: 30 mg/kg s.c. daily for 5 weeks
Method: as §2
Animal studies: experimental procedures From 6 weeks of age onwards, mice received a daily subcutaneous (s.c.) injection either with 30 mg/kg of CORT113176 or vehicle (Veh; 10% ethanol and castor oil in experiment 1 or sesame oil in experiment 2) for five consecutive weeks. In experiment 1, male and female mice were assigned into one of the following groups: 1) WT+Veh (n=5 per sex), 2) WT+CORT113176 (n=5), 3) HD+Veh (n=5) or 4) HD+CORT113176 (n=5). In the final analysis there was an unequal group distribution for the male mice due to a mislabeled genotype and a mouse reaching an earlier endpoint resulting in n=6 in the WT+Veh group and n=3 in the HD+Veh group. In experiment 2, male mice were assigned into the following groups: 1) WT+Veh (n=10), 2) HD+Veh (n=10, ultimately n=8 due to a non-responder that met outlier criteria and a mouse reaching an earlier timepoint) and 3) HD+CORT113176 (n=10). Bodyweight was measured weekly and motor tests were performed at 1 PM to monitor the disease progression (as described below). On day 19 and day 34, blood samples were taken in the morning to evaluate corticosterone levels. On day 34, the animals were sacrificed using CO2 inhalation, blood was collected via cardiac puncture and the animals were perfused with cold PBS. Afterwards, several tissues were harvested and snap-frozen for further analysis. Brains were collected and stored for 24 hours at 4% PFA for IHC (further described below). […]

[8] = tested on: R6/2 mouse model; assay: Observed epileptic seizures in R6/2 mice (Racine scale); type: in vivo
Method: as §2
Animal studies: experimental procedures From 6 weeks of age onwards, mice received a daily subcutaneous (s.c.) injection either with 30 mg/kg of CORT113176 or vehicle (Veh; 10% ethanol and castor oil in experiment 1 or sesame oil in experiment 2) for five consecutive weeks. In experiment 1, male and female mice were assigned into one of the following groups: 1) WT+Veh (n=5 per sex), 2) WT+CORT113176 (n=5), 3) HD+Veh (n=5) or 4) HD+CORT113176 (n=5). In the final analysis there was an unequal group distribution for the male mice due to a mislabeled genotype and a mouse reaching an earlier endpoint resulting in n=6 in the WT+Veh group and n=3 in the HD+Veh group. In experiment 2, male mice were assigned into the following groups: 1) WT+Veh (n=10), 2) HD+Veh (n=10, ultimately n=8 due to a non-responder that met outlier criteria and a mouse reaching an earlier timepoint) and 3) HD+CORT113176 (n=10). Bodyweight was measured weekly and motor tests were performed at 1 PM to monitor the disease progression (as described below). On day 19 and day 34, blood samples were taken in the morning to evaluate corticosterone levels. On day 34, the animals were sacrificed using CO2 inhalation, blood was collected via cardiac puncture and the animals were perfused with cold PBS. Afterwards, several tissues were harvested and snap-frozen for further analysis. Brains were collected and stored for 24 hours at 4% PFA for IHC (further described below).
These seizures were not anticipated, but every case was documented throughout the experiment and scored using the Racine scale^15.

[9] = experiment 1, male HD R6/2 mice, vs vehicle-treated HD mice
[10] = experiment 2 (larger cohort), male HD R6/2 mice, vs vehicle

Structure (SMILES)	Iba1 intensity in hippocampus [1]	Gait abnormalities [2]	Forelimb grip strength over time [3, 9]	Grip strength [3, 10]	Cross-reactivity with other steroid receptors (selectivity for GR) [4]	GFAP immunoreactivity in striatum [5]	GFAP staining intensity in hippocampus [5]	Number of mHtt aggregates in striatum [6]	Total mHtt aggregate area in CA1 region of hippocampus [6]	Total number of mHtt aggregates in CA1 region of hippocampus [6]	mHtt aggregate size in CA1 region of hippocampus [6]	mHtt aggregate size in striatum [6]	Hindlimb clasping score ([7]; experiment 1, female HD R6/2 mice)	Hindlimb clasping score [7, 9]	Clasping score [7, 10]	Total number of epileptic seizures ([8]; experiment 1, female HD R6/2 mice, 30 mg/kg s.c. daily for 5 weeks)	Total number of epileptic seizures ([8]; experiment 1, male HD R6/2 mice, 30 mg/kg s.c. daily for 5 weeks, vs vehicle-treated HD mice)	Time of occurrence of epileptic seizures ([8]; experiment 1, treated HD R6/2 mice, 5-week study)	Number of epileptic seizures ([8]; experiment 2 (larger cohort), male HD R6/2 mice, 30 mg/kg s.c. daily for 5 weeks)
O=C(c1ccccn1)[C@]12Cc3cnn(-c4ccc(F)cc4)c3C=C1CCN(S(=O)(=O)c1ccc(C(F)(F)F)cc1)C2 [CORT113176]	tended to be higher	significantly delayed	attenuated this decrease of muscle function	improved grip strength	lacks significant cross-reactivity with other steroid receptors	normalized GFAP levels in male	tended to normalize this HD effect	significantly decreased this number of mHtt aggregates	smaller total aggregate area	significantly fewer aggregates	smaller aggregates	of a similar size in vehicle- and CORT113176-treated HD groups	at later timepoints the treatment did attenuate the clasping score	reduced clasping score	reduced clasping score	none were observed	occurred slightly more frequently in the vehicle-treated HD mice	occurred mostly near the end of the five weeks (day 32)	Only one epileptic seizure was observed
CC#C[C@]1(O)CC[C@H]2[C@@H]3CCC4=CC(=O)CCC4=C3[C@@H](c3ccc(N(C)C)cc3)C[C@@]21C [mifepristone, reference compound]	–	–	–	–	is not specific for GR	–	–	–	–	–	–	–	–	–	–	–	–	–	–
CC(C)n1ncc(S(=O)(=O)N2CC[C@H]3Cc4c(cnn4-c4ccc(F)cc4)C[C@]3(C(=O)c3cscn3)C2)n1 [zavacorilant, ((4aR,8aS)-1-(4-fluorophenyl)-6-((2-isopropyl-2H-1,2,3-triazol-4-yl)sulfonyl)-4,4a,5,6,7,8,8a,9-octahydro-1H-pyrazolo[3,4-g]isoquinolin-4a-yl)(thiazol-4-yl)methanone]	–	–	–	–	lacks significant cross-reactivity with other steroid receptors	–	–	–	–	–	–	–	–	–	–	–	–	–	–
